Reference: publication PMC4823724 (Scientific Reports, 2016)

How the values were obtained:
RpfG [1] = tested on: RpfG
RpfG [2] = tested on: RpfG; remark: listed apart in the source

RpfG, sequence (G7TEN6 1-378): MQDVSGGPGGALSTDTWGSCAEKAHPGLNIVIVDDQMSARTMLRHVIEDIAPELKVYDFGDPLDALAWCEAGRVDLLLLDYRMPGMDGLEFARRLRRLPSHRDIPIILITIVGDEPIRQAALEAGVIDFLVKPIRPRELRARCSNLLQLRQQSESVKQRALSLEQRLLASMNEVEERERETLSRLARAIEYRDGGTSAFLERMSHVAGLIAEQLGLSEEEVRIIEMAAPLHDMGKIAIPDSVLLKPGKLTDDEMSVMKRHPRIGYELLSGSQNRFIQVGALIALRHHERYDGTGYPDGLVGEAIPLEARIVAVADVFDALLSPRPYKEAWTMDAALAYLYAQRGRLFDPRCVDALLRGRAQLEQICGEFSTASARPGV

SMILES | colorimetric phosphodiesterase assay at 410 nm (RpfG [1]) | HPLC phosphodiesterase assay (RpfG [2])
O=[N+]([O-])c1ccc(OP(=O)(O)Oc2ccc([N+](=O)[O-])cc2)cc1 [bis(p-nitrophenyl) phosphate] | RpfG efficiently converted bis(p-nitrophenyl) phosphate into p-nitrophenol | 
Nc1nc2c(ncn2[C@@H]2O[C@@H]3COP(=O)(O)O[C@H]4[C@@H](O)[C@H](n5cnc6c(=O)[nH]c(N)nc65)O[C@@H]4COP(=O)(O)O[C@H]3[C@H]2O)c(=O)[nH]1 [c-di-GMP] |  | degraded product pGpG was produced when RpfG was incubated with c-di-GMP
